# Experiments:
# [1] = test system: adult German cockroaches, Blattella germanica; assay: Insecticidal action, time-to-death of adult German cockroaches after 10 μL on the back; type: in vivo; conditions: regardless of male or female
# Method: Material and Methods: Ten μL of either BioUD 10, pure 2-Undecanone, or Raid were separately applied to the backs (thorax and wings) of adult German cockroaches, Blattella germanica. Insects were separately placed into FLUON®-treated diet cups (Vol.=30 mL, lower diam.=3 cm, height=4 cm) to prevent escape of treated specimens.
# [2] = test system: Eastern subterranean termite, Reticulitermes flavipes; assay: Killing activity in termites, compound pipetted onto back; type: in vivo; conditions: adults, 1 μL
smiles,measurement,setting,value
"CCCCCCCCCC(C)=O [2-Undecanone, 2-undecanone]",speed of kill relative to the formulated product (BioUD10),[1],~2 ×
same,"Time-to-death (sec), mean",[2]; castes w and s together,171.5 s
same,Time-to-death,"[2]; caste s, single insects",146 s

# From patent US20110189251A1, “COMPOUNDS AND COMPOSITIONS FOR THE CONTROL OF PESTS” (priority 2007, published 2011)
